# Source: US11130752B2, “Aminopyrimidine compound” (Cardurion Pharmaceuticals, LLC, priority 2018, dated 2021)
# How the values were obtained:
# [1] = biological target: T1, human CaMKIIδ (Homo sapiens, UniProt Q13557); test: In vitro CaMKII inhibitory activity (binding assay, TR-FRET); conditions: activity ranks
# T1 construct: Full-length, glutathione-S-transferase(GST)-tagged, human CaMKIIδ was purchased from Carna Biosciences; purchased Carna Biosciences (CaMKIIδ); Wako Pure Chemical Industries (calmodulin) 02-111
# Outline: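 TR-FRET displacement of a BODIPY probe (300 nM) from 0.5 nM full-length GST-tagged human CaMKIIδ, with Tb-anti-GST, calmodulin and 1 mM CaCl2 in pH 7.6 HEPES/MgCl2 buffer. Read after 1 hr at room temperature over an eight-point 4-fold series. IC50 by logistic fit, with 3 μM parent compound as the 100% control.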
# [2] = system: HepG2 cells; test: In vitro cytotoxicity (cellular ATP content, CellTiter-Glo); assay type: cell-based; conditions: 33 μM, 72 hr incubation
# Procedure: Evaluation of In Vitro Cytotoxicity
# To evaluate in vitro cytotoxicity of test compounds, % ATP reduction was determined in the presence of 33 μM of each test compound after 72 hr incubation.
# HepG2 cells were seeded in DMEM (Invitrogen) containing 10% FBS (Corning)+glucose (4.5 g/L) for 24 hr to allow cell adhesion. For compound treatments, compounds were diluted in DMSO and the media, followed by added to the wells (24 hr after the cell seeding) to obtain the desired final concentration (33 μM, n=2). The final DMSO concentration was 1%. After 72 hr, cellular ATP contents were measured using CellTiter-Glo Luminescent Cell Viability Assay (Promega). The % ATP reduction was determined by comparing the ATP contents in the absence and the presence of test compounds.
# [3] = system: phospholamban (Thr17, PLN) phosphorylation, cardiac CaMKII; test: In vivo cardiac CaMKII inhibition (oral administration), P-PLN Western blot; conditions: male CD (SD) IGS rat left ventricle, 30 mg/kg p.o., 4 hr after administration, in comparison with vehicle-treated group, read-out: Reduction rate of P-PLN
# Procedure: Evaluation of In Vivo Cardiac CaMKII Inhibition (Oral Administration)
# To evaluate potency of test compounds to inhibit cardiac CaMKII kinase in vivo, phosphorylation levels of CaMKII-specific sites of phospholamban (Thr17, PLN) were measured in the heart of rats administered orally with test compounds.
# Test compounds were suspended in 0.5% [w/v]methylcellulose/water solution and administered (30 mg/kg) to male CD (SD) IGS rat (6-8 weeks old, n=4) by the p.o. route (5 mL/kg). At 4 hours after the administration, rats were sacrificed and the hearts were harvested. After washing the isolated hearts with ice-cold saline, connective tissues were removed on ice, and the isolated left ventricle were frozen into liquid nitrogen gas and stored at −80° C.
# (§1) The left ventricle samples were homogenized in RIPA-buffer containing phosphatase inhibitors and protease inhibitors. Samples were analyzed by Western blotting using anti-P-PLN (Thr17, Santa Cruz Biotechnology, sc-17024-R) antibody. The band intensities were quantified using an imaging system and were normalized relative to the vehicle-treated group.
# [4] = system: phospholamban (Thr17, PLN) phosphorylation, cardiac CaMKII; test: In vivo cardiac CaMKII inhibition (intravenous administration), P-PLN Western blot; conditions: male CD (SD) IGS rat left ventricle, 1 mg/kg bolus i.v., 0.25 hr after administration, in comparison with vehicle-treated group
# Procedure: Evaluation of In Vivo Cardiac CaMKII Inhibition (Intravenous Administration)
# To evaluate potency of test compounds to inhibit cardiac CaMKII kinase in vivo, phosphorylation levels of CaMKII-specific sites of phospholamban (Thr17, PLN) were measured in the heart of rats administered intravenously with test compounds.
# Test compounds were dissolved in N,N-dimethylacetamide and 1,3-butanediol (1:1) solution and were injected (1 mg/kg) to male CD (SD) IGS rats (8 weeks old, n=4) by bolus intravenous injection via the lateral tail vein or the femoral vein (0.5-1 mL/kg). At 0.25 hours after the injection, rats were sacrificed and the hearts were harvested. After washing the isolated hearts with ice-cold saline, connective tissues were removed on ice, and the isolated left ventricle were frozen into liquid nitrogen gas and stored at −80° C.
# as §1
# [5] = Table 1, GST-tagged human CaMKIIδ
# [6] = Table 4, GST-tagged human CaMKIIδ
Structure (SMILES),"IC50 [1, 5] [nM]",melting point [°C],% ATP reduction [2] [%],inhibition in vivo at 30 mg/kg [3] [%],"IC50 [1, 6] [nM]",Reduction rate of P-PLN [4] [%]
"COCCCOc1nn([C@H]2CC[C@H](N3CCOCC3)CC2)cc1Nc1ncc(-c2ccc(C#N)c(O[C@@H](C)Cn3cnnn3)c2)cn1 [Example 26, 2-(((S)-1-(1H-tetrazol-1-yl)propan-2-yl)oxy)-4-(2-((3-(3-methoxypropoxy)-1-((1r,4r)-4-morpholinocyclohexyl)-1H-pyrazol-4-yl)amino)pyrimidin-5-yl)benzonitrile]",< 10,153,9,> 30,–,–
"C[C@@H]1CN([C@H]2CC[C@H](n3cc(Nc4ncc(-c5ccc(C#N)c(O[C@@H](C)Cn6cnnn6)c5)cn4)c(OCCC4COC4)n3)CC2)C[C@H](C)O1 [Example 477, 2-(((S)-1-(1H-tetrazol-1-yl)propan-2-yl)oxy)-4-(2-((1-((1r,4r)-4-((2S,6R)-2,6-dimethylmorpholino)cyclohexyl)-3-(2-(oxetan-3-yl)ethoxy)-1H-pyrazol-4-yl)amino)pyrimidin-5-yl)benzonitrile]",–,–,9,–,< 10,–
"C[C@@H]1CN([C@H]2CC[C@H](n3cc(Nc4ncc(-c5ccc(C#N)c(O[C@@H](C)Cn6cnnn6)c5)cn4)c(OCCC(C)(C)O)n3)CC2)C[C@H](C)O1 [Example 485, 2-(((S)-1-(1H-tetrazol-1-yl)propan-2-yl)oxy)-4-(2-((1-((1r,4r)-4-((2S,6R)-2,6-dimethylmorpholino)cyclohexyl)-3-(3-hydroxy-3-methylbutoxy)-1H-pyrazol-4-yl)amino)pyrimidin-5-yl)benzonitrile]",–,–,7,–,< 10,>30
"COCCOCCOc1nn([C@H]2CC[C@H](N3C[C@@H](C)O[C@@H](C)C3)CC2)cc1Nc1ncc(-c2ccc(C#N)c(O[C@@H](C)Cn3cnnn3)c2)cn1.Cl [Example 241, 2-(((S)-1-(1H-tetrazol-1-yl)propan-2-yl)oxy)-4-(2-((1-((1r,4r)-4-((2S,6R)-2,6-dimethylmorpholino)cyclohexyl)-3-(2-(2-methoxyethoxy)ethoxy)-1H-pyrazol-4-yl)amino)pyrimidin-5-yl)benzonitrile hydrochloride]",< 10,–,−2,–,–,–
"COCCOCCCOc1nn([C@H]2CC[C@H](N3C[C@@H](C)O[C@@H](C)C3)CC2)cc1Nc1ncc(-c2ccc(C#N)c(O[C@@H](C)Cn3cnnn3)c2)cn1 [Example 488, 2-(((S)-1-(1H-tetrazol-1-yl)propan-2-yl)oxy)-4-(2-((1-((1r,4r)-4-((2S,6R)-2,6-dimethylmorpholino)cyclohexyl)-3-(3-(2-methoxyethoxy)propoxy)-1H-pyrazol-4-yl)amino)pyrimidin-5-yl)benzonitrile]",–,–,3,> 30,< 10,–
"COCCCOc1nn([C@H]2CC[C@H](N3C[C@@H](C)O[C@@H](C)C3)CC2)cc1Nc1ncc(-c2ccc(C#N)c(O[C@@H](C)Cn3cnnn3)c2)cn1 [Example 143, 2-(((S)-1-(1H-tetrazol-1-yl)propan-2-yl)oxy)-4-(2-((1-((1r,4r)-4-((2S,6R)-2,6-dimethylmorpholino)cyclohexyl)-3-(3-methoxypropoxy)-1H-pyrazol-4-yl)amino)pyrimidin-5-yl)benzonitrile]",< 10,113,12,> 30,–,>30
